Laboratory results taken from patent US20250171414A1, “COMPOUND SERVING AS MASP-2 INHIBITOR, PHARMACEUTICAL COMPOSITION, PREPARATION METHOD THEREFOR, AND USE THEREOF” (WUHAN CREATERNA SCIENCE AND TECHNOLOGY CO., LTD., priority 2022, published 2025).
pIC50: −log10 of the molar value.

The molecules below were run on lectin pathway (MBL) in human serum (assay: Inhibition of activity of lectin pathway (MBL) in human serum (WIESLAB Complement System MBL Pathway kit)). Settings: 1% human serum.
Type: biochemical
Experimental: The inhibition of the activity of the lectin pathway (MBL) in human serum by compounds was detected using a WIESLAB® Complement System MBL Pathway kit (SVAR, COMPLMP320). Test compounds were each serially diluted in a buffer (Diluent MP), and 1% human serum was incubated with the diluted compound solution for 15 min at room temperature. 100 μL of the mixture was added to a microplate and incubated at 37° C. for 60 min. The liquid in the wells was discarded, and the microplate was washed three times with a washing solution. A Conjugate antibody solution was added at 100 μL/well, and the resulting mixture was incubated for 30 min at 25° C. The liquid in the wells was discarded, and the microplate was washed three times with a washing solution; a substrate solution was added at 100 μL/well, and the resulting mixture was incubated for 30 min at 25° C.; the terminator was added at 50 μL/well, and the absorbance at 405 nm was detected within 30 min by using a microplate reader.

SMILES | pIC50
Cc1cc(C2=C[C@@H](C(=O)N[C@@H](C)C(=O)N[C@@H]3CCc4nc(N)ccc43)NCC2)ccc1F (single isomer, unassigned) [Compound L071-IS-02] | 8.11
C[C@H](NC(=O)[C@H]1CC(c2cccc(F)c2)CCN1)C(=O)NC1CCc2nc(N)ccc21 (stereo in doubt) [Compound L039-IS-02, (2R,4S)-N-((2S)-1-((2-amino-6,7-dihydro-5H-cyclopenta[b]pyridin-5-yl)amino)-1-oxopropan-2-yl)-4-(3-fluorophenyl)piperidine-2-carboxamide] | 8.63
C[C@H](NC(=O)c1cc(-c2ccccc2)c[nH]1)C(=O)N[C@@H]1CCc2nc(N)ccc21 [Compound L020-IS-01, N—((S)-1-(((R)-2-amino-6,7-dihydro-5H-cyclopenta[b]pyridin-5-yl)amino)-1-oxopropan-2-yl)-4-phenyl-1H-pyrrole-2-carboxamide] | 7.82
C[C@H](NC(=O)[C@H]1C[C@@H](c2ccccc2)CCN1)C(=O)NC1CCc2nc(N)ccc21 (stereo partly drawn) [Compound L021-IS-01, (2R,4S)—N-((2S)-1-((2-amino-6,7-dihydro-5H-cyclopenta[b]pyridin-5-yl)amino)-1-oxopropan-2-yl)-4-phenylpiperidine-2-carboxamide] | 9.59
C[C@H](NC(=O)[C@H]1C[C@@H](c2ccc(F)cc2)CCN1)C(=O)NC1CCc2nc(N)ccc21 (stereo partly drawn) [Compound L033-IS-02, (2R,4S)—N-((2S)-1-((2-amino-6,7-dihydro-5H-cyclopenta[b]pyridin-5-yl)amino)-1-oxopropan-2-yl)-4-(4-fluorophenyl) piperidine-2-carboxamide] | 8.65
C[C@H](NC(=O)[C@H]1C[C@@H](c2ccccc2F)CCN1)C(=O)NC1CCc2nc(N)ccc21 (stereo partly drawn) [Compound L038-IS-02, (2R,4S)—N-((2S)-1-((2-amino-6,7-dihydro-5H-cyclopenta[b]pyridin-5-yl)amino)-1-oxopropan-2-yl)-4-(2-fluorophenyl) piperidine-2-carboxamide] | 8.32
C[C@H](NC(=O)[C@H]1C[C@@H](c2cccc(C(F)(F)F)c2)CCN1)C(=O)NC1CCc2nc(N)ccc21 (stereo partly drawn) [Compound L044-IS-02, (2R,4S)-N-((2S)-1-((2-amino-6,7-dihydro-5H-cyclopenta[b]pyridin-5-yl)amino)-1-oxopropan-2-yl)-4-(3-(trifluoromethyl)phenyl)piperidine-2-carboxamide] | 8.74
C[C@H](NC(=O)[C@H]1C[C@@H](c2ccc(F)c(F)c2)CCN1)C(=O)NC1CCc2nc(N)ccc21 (stereo partly drawn) [Compound L045-IS-02, (2R,4S)-N-((2S)-1-((2-amino-6,7-dihydro-5H-cyclopenta[b]pyridin-5-yl)amino)-1-oxopropan-2-yl)-4-(3,4-difluorophenyl)piperidine-2-carboxamide] | 8.39
C[C@H](NC(=O)[C@H]1C[C@@H](c2cccc(OC(F)(F)F)c2)CCN1)C(=O)NC1CCc2nc(N)ccc21 (stereo partly drawn) [Compound L046-IS-02, (2R,4S)-N-((2S)-1-((2-amino-6,7-dihydro-5H-cyclopenta[b]pyridin-5-yl)amino)-1-oxopropan-2-yl)-4-(3-(trifluoromethoxy)phenyl)piperidine-2-carboxamide] | 8.43
C[C@H](NC(=O)[C@H]1C[C@@H](c2ccc(F)cc2F)CCN1)C(=O)NC1CCc2nc(N)ccc21 (stereo partly drawn) [Compound L047-IS-02, (2R,4S)-N-((2S)-1-((2-amino-6,7-dihydro-5H-cyclopenta[b]pyridin-5-yl)amino)-1-oxopropan-2-yl)-4-(2,4-difluorophenyl)piperidine-2-carboxamide] | 8.51
C[C@H](NC(=O)[C@H]1C[C@@H](c2cccc(F)c2F)CCN1)C(=O)NC1CCc2nc(N)ccc21 (stereo partly drawn) [Compound L048-IS-02, (2R,4S)-N-((2S)-1-((2-amino-6,7-dihydro-5H-cyclopenta[b]pyridin-5-yl)amino)-1-oxopropan-2-yl)-4-(2,3-difluorophenyl)piperidine-2-carboxamide] | 8.22
Nc1ccc2c(n1)CC[C@H]2NC(=O)[C@H]1[C@H]2C[C@H]2CN1C(=O)[C@H]1C[C@H](Cc2ccc(F)cc2)CN1 [Compound L055-IS-02, (1S,2R,5R)—N—((R)-2-amino-6,7-dihydro-5H-cyclopenta [b]pyridin-5-yl)-3-((2R,4S)-4-(4-fluorobenzyl)pyrrolidine-2-carbonyl)-3-azabicyclo[3.1.0]hexane-2-carboxamide] | 8.15
C[C@H](NC(=O)[C@@H]1C=C(c2ccc(F)c(C(F)(F)F)c2)CCN1)C(=O)N[C@@H]1CCc2nc(N)ccc21 [Compound L070-IS-02, (S)-N-((S)-1-(((R)-2-amino-6,7-dihydro-5H-cyclopenta[b]pyridin-5-yl)amino)-1-oxopropan-2-yl)-4-(4-fluoro-3-(trifluoromethyl)phenyl)-1,2,5,6-tetrahydropyridine-2-carboxamide] | 7.75
C[C@H](NC(=O)[C@@H]1C=C(c2ccc(F)c(Cl)c2)CCN1)C(=O)N[C@@H]1CCc2nc(N)ccc21 [Compound L072-IS-02, (S)-N-((S)-1-(((R)-2-amino-6,7-dihydro-5H-cyclopenta[b]pyridin-5-yl)amino)-1-oxopropan-2-yl)-4-(3-chloro-4-fluorophenyl)-1,2,5,6-tetrahydropyridine-2-carboxamide] | 8.03
C[C@H](NC(=O)[C@@H]1C=C(c2ccc(F)cc2C(F)(F)F)CCN1)C(=O)N[C@@H]1CCc2nc(N)ccc21 [Compound L073-IS-02, (S)-N-((S)-1-(((R)-2-amino-6,7-dihydro-5H-cyclopenta[b]pyridin-5-yl)amino)-1-oxopropan-2-yl)-4-(4-fluoro-2-(trifluoromethyl)phenyl)-1,2,5,6-tetrahydropyridine-2-carboxamide] | 8.37

Now from value to molecule:

pIC50 | SMILES
7.89 | Cc1ccc(C[C@@H]2CN[C@@H](C(=O)N[C@@H](C)C(=O)NC3CCc4nc(N)ccc43)C2)cc1 (stereo partly drawn) [Compound L004, (2R,4S)—N-((2S)-1-((2-amino-6,7-dihydro-5H-cyclopenta[b]pyridin-5-yl)amino)-1-oxopropan-2-yl)-4-(4-methylbenzyl) pyrrolidine-2-carboxamide]
8.15 | CC(c1ccccc1)[C@H]1CN[C@@H](C(=O)N[C@@H](C)C(=O)NC2CCc3nc(N)ccc32)C1 (stereo partly drawn) [Compound L009, (2R,4S)—N-((2S)-1-((2-amino-6,7-dihydro-5H-cyclopenta[b]pyridin-5-yl)amino)-1-oxopropan-2-yl)-4-(1-phenylethyl) pyrrolidine-2-carboxamide]
8.12 | Cc1cc(C[C@@H]2CN[C@@H](C(=O)N[C@@H](C)C(=O)NC3CCc4nc(N)ccc43)C2)ccn1 (stereo partly drawn) [Compound L011, (2R,4S)—N-((2S)-1-((2-amino-6,7-dihydro-5H-cyclopenta[b]pyridin-5-yl)amino)-1-oxopropan-2-yl)-4-((2-methylpyridin-4-yl)methyl) pyrrolidine-2-carboxamide]
8.18 | C[C@H](NC(=O)[C@H]1C[C@H](Cc2nc3cc(Cl)ccc3s2)CN1)C(=O)NC1CCc2nc(N)ccc21 (stereo partly drawn) [Compound L013, (2R,4R)—N-((2S)-1-((2-amino-6,7-dihydro-5H-cyclopenta[b]pyridin-5-yl)amino)-1-oxopropan-2-yl)-4-((5-chlorobenzo[d]thiazol-2-yl)methyl) pyrrolidine-2-carboxamide]
8.70 | COc1cc2ccccc2cc1C[C@@H]1CN[C@@H](C(=O)N[C@@H](C)C(=O)NC2CCc3nc(N)ccc32)C1 (stereo partly drawn) [Compound L015, (2R,4S)—N-((2S)-1-((2-amino-6,7-dihydro-5H-cyclopenta[b]pyridin-5-yl)amino)-1-oxopropan-2-yl)-4-((3-methoxynaphthalen-2-yl)methyl) pyrrolidine-2-carboxamide]
8.33 | Cc1cccc(C[C@@H]2CN[C@@H](C(=O)N[C@@H](C)C(=O)NC3CCc4nc(N)ccc43)C2)c1 (stereo partly drawn) [Compound L016, (2R,4S)—N-((2S)-1-((2-amino-6,7-dihydro-5H-cyclopenta[b]pyridin-5-yl)amino)-1-oxopropan-2-yl)-4-(3-methylbenzyl) pyrrolidine-2-carboxamide]
8.16 | C[C@H](NC(=O)[C@H]1C[C@H](C2(c3ccccc3)CC2)CN1)C(=O)NC1CCc2nc(N)ccc21 (stereo partly drawn) [Compound L017, (2R,4R)—N-((2S)-1-((2-amino-6,7-dihydro-5H-cyclopenta[b]pyridin-5-yl)amino)-1-oxopropan-2-yl)-4-(1-phenylcyclopropyl) pyrrolidine-2-carboxamide]
8.43 | C[C@H](NC(=O)C1CC(c2ccccc2)CCN1)C(=O)NC1CCc2nc(N)ccc21 (stereo partly drawn) [Compound L021, N-((2S)-1-((2-amino-6,7-dihydro-5H-cyclopenta[b]pyridin-5-yl)amino)-1-oxopropan-2-yl)-4-phenylpiperidine-2-carboxamide]
8.20 | C[C@H](NC(=O)[C@H]1CN(Cc2ccccc2)CCN1)C(=O)NC1CCc2nc(N)ccc21 (stereo partly drawn) [Compound L024, (2R)—N-((2S)-1-((2-amino-6,7-dihydro-5H-cyclopenta[b]pyridin-5-yl)amino)-1-oxopropan-2-yl)-4-benzylpiperazine-2-carboxamide]
8.26 | C[C@H](NC(=O)[C@H]1CN(c2cccc3ccccc23)CCN1)C(=O)NC1CCc2nc(N)ccc21 (some centres unmarked) [Compound L025]
8.35 | Nc1ccc2c(n1)CCC2NC(=O)[C@@H]1CCCN1C(=O)[C@H]1C[C@H](Cc2ccc(F)cc2)CN1 (stereo partly drawn) [Compound L031, (2S)—N-(2-amino-6,7-dihydro-5H-cyclopenta[b]pyridin-5-yl)-1-((2R,4S)-4-(4-fluorobenzyl)pyrrolidine-2-carbonyl) pyrrolidine-2-carboxamide]
